Reference: patent US20250170248A1, “SMARCA DEGRADERS AND USES THEREOF” (Kymera Therapeutics, Inc., priority 2021, published 2025)

Assays:
Format in all cases: cell-based
[1] = biological target: T1, SMARCA4 (Homo sapiens, UniProt P51532); assay: SMARCA4 Western blot degradation in MV4-11 cells; conditions: 24 h; for Dmax: MV4-11, MV4-11 cells, read-out: SMARCA4 MSD MV411 degradation 24 h: average Dmax %; for DC50: MV4-11 cells, read-out: SMARCA4 MSD MV411 degradation 24 h: Mean external-Abs DC50
T1 construct: SMARCA2/SMARCA4 protein degradation selectivity in MV4-11 cells; endogenous in cells; host or cells: MV4-11
Method in brief: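 MV4-11 cells (4×10^6/well) treated with compound for 24 h, lysed in RIPA with protease/phosphatase inhibitors, and SMARCA2, SMARCA4 and beta-actin detected by Western blot with LI-COR readout. Values reported as letter-coded DC50, 24 h Dmax % and SMARCA2/4 selectivity fold.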

[2] = biological target: T2, SMARCA2 (Homo sapiens, UniProt P51531); assay: SMARCA2 Western blot degradation in MV4-11 cells; parameters: SMARCA2/SMARCA4 protein degradation selectivity in MV4-11 cells; endogenous in cells; host or cells: MV4-11; conditions: for Dmax: MV4-11, MV4-11 cells, read-out: SMARCA2 MSD MV411 degradation 24 h: average Dmax %; for Dmax / DC50: 24 h; for DC50 / Selectivity in MV411: MV4-11 cells; for DC50: read-out: SMARCA2 MSD MV411 degradation 24 h: Mean external-Abs DC50; for Selectivity in MV411: SMARCA2/4 selectivity
[3] = biological target: T2, SMARCA2; assay: MSD SMARCA2 degradation in A549 cell line; conditions: 24 h; for Dmax: A549, A549 cells; for DC50: A549 cells, read-out: SMARCA2 MSD A549 degradation 24 h: Average external-Abs DC50
Method in brief: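 A549 cells treated 24 h with compound, 3-fold series from 1000 nM. Lysates captured on MSD plates and SMARCA2 quantified with anti-SMARCA2 and SULFO-TAG secondary antibodies (electrochemiluminescence). DC50 and Dmax (% degradation at 24 h) reported as letter bins.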

T1 sequence (P51532 whole entry): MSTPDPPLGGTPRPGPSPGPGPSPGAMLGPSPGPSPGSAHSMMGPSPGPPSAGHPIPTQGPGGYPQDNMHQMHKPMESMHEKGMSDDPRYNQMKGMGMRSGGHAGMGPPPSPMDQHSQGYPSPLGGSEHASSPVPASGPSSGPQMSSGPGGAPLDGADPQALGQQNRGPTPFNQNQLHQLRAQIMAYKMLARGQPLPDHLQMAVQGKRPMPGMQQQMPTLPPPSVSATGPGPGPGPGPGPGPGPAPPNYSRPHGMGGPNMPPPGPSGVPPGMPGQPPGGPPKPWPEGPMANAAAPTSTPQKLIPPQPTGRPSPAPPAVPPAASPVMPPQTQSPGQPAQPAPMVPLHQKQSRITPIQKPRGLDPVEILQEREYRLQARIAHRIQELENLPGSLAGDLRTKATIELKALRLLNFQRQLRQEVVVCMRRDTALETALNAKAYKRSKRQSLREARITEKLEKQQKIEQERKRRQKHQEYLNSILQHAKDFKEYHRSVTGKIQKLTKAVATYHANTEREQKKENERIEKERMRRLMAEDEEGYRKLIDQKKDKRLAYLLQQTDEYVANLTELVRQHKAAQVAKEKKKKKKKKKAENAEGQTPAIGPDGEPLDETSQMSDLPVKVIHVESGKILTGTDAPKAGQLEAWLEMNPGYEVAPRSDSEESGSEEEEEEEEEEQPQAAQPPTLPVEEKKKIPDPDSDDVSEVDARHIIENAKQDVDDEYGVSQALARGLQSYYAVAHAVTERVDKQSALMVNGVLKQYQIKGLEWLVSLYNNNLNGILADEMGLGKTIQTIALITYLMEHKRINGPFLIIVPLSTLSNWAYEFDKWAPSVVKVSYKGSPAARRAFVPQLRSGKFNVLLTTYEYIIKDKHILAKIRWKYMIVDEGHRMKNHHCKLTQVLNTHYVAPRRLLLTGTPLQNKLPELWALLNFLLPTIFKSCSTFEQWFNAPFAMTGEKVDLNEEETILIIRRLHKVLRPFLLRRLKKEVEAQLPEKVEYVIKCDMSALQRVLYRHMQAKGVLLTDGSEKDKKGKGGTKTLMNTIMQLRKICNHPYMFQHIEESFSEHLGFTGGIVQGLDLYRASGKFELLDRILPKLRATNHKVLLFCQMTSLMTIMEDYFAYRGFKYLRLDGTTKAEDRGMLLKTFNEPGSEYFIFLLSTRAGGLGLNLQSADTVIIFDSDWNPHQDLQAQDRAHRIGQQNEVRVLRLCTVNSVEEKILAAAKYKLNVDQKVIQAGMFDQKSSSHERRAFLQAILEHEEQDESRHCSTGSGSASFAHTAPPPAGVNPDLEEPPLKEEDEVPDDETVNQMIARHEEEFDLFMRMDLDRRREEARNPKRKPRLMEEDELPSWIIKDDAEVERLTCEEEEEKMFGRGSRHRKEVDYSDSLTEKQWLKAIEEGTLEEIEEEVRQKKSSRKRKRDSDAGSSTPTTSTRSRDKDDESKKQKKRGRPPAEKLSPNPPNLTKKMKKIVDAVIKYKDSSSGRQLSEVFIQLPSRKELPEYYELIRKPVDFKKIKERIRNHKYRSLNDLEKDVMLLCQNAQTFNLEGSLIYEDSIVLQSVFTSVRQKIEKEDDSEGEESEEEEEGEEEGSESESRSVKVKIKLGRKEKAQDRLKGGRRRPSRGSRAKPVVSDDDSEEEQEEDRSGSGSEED
T2 sequence (P51531 whole entry): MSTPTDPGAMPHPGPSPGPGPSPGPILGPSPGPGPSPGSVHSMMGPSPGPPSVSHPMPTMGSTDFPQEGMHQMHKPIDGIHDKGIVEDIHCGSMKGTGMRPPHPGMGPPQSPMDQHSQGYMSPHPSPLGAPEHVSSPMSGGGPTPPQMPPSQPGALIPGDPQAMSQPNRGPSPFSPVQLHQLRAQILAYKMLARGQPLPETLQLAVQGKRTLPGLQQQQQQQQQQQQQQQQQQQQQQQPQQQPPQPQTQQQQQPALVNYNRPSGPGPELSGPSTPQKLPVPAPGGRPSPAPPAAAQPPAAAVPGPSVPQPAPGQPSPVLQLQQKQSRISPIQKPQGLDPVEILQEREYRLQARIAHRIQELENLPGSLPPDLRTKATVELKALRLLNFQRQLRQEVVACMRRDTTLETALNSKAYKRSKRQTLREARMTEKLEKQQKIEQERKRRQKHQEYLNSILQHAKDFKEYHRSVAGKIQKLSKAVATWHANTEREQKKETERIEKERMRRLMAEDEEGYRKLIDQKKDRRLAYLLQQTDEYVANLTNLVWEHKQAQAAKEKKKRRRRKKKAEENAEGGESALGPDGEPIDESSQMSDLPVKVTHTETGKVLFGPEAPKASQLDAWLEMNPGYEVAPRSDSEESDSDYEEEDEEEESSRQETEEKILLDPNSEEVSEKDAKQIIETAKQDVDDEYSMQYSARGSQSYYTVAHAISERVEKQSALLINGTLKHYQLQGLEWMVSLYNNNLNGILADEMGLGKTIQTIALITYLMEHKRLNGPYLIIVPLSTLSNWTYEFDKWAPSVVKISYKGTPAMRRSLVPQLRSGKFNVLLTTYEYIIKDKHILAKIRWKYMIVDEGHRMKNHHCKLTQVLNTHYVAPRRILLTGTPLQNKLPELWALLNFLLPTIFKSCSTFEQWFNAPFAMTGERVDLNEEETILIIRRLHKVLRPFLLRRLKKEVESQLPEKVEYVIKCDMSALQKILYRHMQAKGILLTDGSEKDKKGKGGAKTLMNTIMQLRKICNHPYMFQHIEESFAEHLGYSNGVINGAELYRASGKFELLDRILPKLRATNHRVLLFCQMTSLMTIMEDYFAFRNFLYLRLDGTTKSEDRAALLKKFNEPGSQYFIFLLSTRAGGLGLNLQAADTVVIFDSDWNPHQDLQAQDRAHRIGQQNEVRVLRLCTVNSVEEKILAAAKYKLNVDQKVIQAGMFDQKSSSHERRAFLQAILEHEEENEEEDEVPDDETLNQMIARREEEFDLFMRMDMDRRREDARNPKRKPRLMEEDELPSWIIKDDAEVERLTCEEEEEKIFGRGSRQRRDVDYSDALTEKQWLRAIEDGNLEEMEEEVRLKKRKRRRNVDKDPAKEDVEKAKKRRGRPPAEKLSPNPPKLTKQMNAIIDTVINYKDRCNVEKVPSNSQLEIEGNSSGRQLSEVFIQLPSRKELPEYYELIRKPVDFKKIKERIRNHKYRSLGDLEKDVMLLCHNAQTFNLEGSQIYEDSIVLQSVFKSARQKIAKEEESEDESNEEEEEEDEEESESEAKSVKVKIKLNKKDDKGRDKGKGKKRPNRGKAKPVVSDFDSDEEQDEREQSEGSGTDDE

Dmax [1] | DC50 [1] | Dmax [2] | DC50 [2] | Selectivity in MV411 [2] | Dmax [3] | DC50 [3] | Structure (SMILES)
50 to 70% | > 100 nM | < 50% | 10 to 100 nM | B (B (>100-500 fold)) | 70 to 90% | > 100 nM | Cc1ncsc1-c1ccc(CNC(=O)[C@@H]2C[C@@H](O)CN2C(=O)[C@@H](NC(=O)C2(F)CC2)C(C)(C)C)c(O[C@H]2CC[C@@H](N3CCC(c4cnc(N5CCc6[nH]c7nnc(-c8ccccc8O)cc7c6[C@@H]5C)nc4)CC3)CC2)c1 (single isomer, unassigned) [I-34]
> 90% | < 1 nM | > 90% | < 1 nM | D (D (<10 fold)) | > 90% | < 10 nM | C#CCOc1cc(C(C(=O)N2C[C@H](O)C[C@H]2C(=O)NCc2ccc(-c3scnc3C)cc2O[C@H]2CC[C@@H](N3CCC(c4cnc(N5CCc6[nH]c7nnc(-c8ccccc8O)cc7c6[C@H]5C)nc4)CC3)CC2)C(C)C)on1 (single isomer, unassigned) [I-37]
> 90% | 10 to 100 nM | > 90% | < 1 nM | C (C (10-100 fold)) | > 90% | 10 to 50 nM | C#CCOc1cc(C(C(=O)N2C[C@H](O)C[C@H]2C(=O)NCc2ccc(-c3scnc3C)cc2O[C@H]2CC[C@H](N3CCC(c4cnc(N5CCc6[nH]c7nnc(-c8ccccc8O)cc7c6[C@H]5C)nc4)CC3)CC2)C(C)C)on1 (single isomer, unassigned) [I-38]
70 to 90% | > 100 nM | 70 to 90% | 10 to 100 nM | D (D (<10 fold)) | 70 to 90% | > 100 nM | C#CCOc1cc(C(C(=O)N2C[C@H](O)C[C@H]2C(=O)NCc2ccc(-c3scnc3C)cc2O[C@H]2CC[C@H](N3CCC(c4cnc(N5CCc6[nH]c7nnc(-c8ccccc8O)cc7c6[C@@H]5C)nc4)CC3)CC2)C(C)C)on1 (single isomer, unassigned) [I-40]
> 90% | 10 to 100 nM | > 90% | < 1 nM | D (D (<10 fold)) | 70 to 90% | 50 to 100 nM | Cc1ncsc1-c1ccc(CNC(=O)[C@@H]2C[C@@H](O)CN2C(=O)C(c2cc(OCCN3CCC(N4CCC(c5cnc(N6CCc7[nH]c8nnc(-c9ccccc9O)cc8c7[C@@H]6C)nc5)CC4)CC3)no2)C(C)C)cc1 (single isomer, unassigned) [I-41]
> 90% | 1 to 10 nM | > 90% | 1 to 10 nM | D (D (<10 fold)) | > 90% | > 100 nM | Cc1ncsc1-c1ccc(CNC(=O)[C@@H]2C[C@@H](O)CN2C(=O)[C@@H](NC(=O)C2(F)CC2)C(C)(C)C)c(O[C@H]2CC[C@H](N3CCC(N4CCC(c5cnc(N6CCc7[nH]c8nnc(-c9ccccc9O)cc8c7[C@@H]6C)nc5)CC4)CC3)CC2)c1 (single isomer, unassigned) [I-47]
> 90% | > 100 nM | 50 to 70% | 10 to 100 nM | C (C (10-100 fold)) | 70 to 90% | > 100 nM | Cc1ncsc1-c1ccc(CNC(=O)[C@@H]2C[C@@H](O)CN2C(=O)[C@@H](NC(=O)C2(F)CC2)C(C)(C)C)c(O[C@H]2CC[C@@H](N3CCC(N4CCC(c5cnc(N6CCc7[nH]c8nnc(-c9ccccc9O)cc8c7[C@@H]6C)nc5)CC4)CC3)CC2)c1 (single isomer, unassigned) [I-48]
> 90% | 1 to 10 nM | > 90% | < 1 nM | C (C (10-100 fold)) | > 90% | 10 to 50 nM | Cc1ncsc1-c1ccc(CNC(=O)[C@@H]2C[C@@H](O)CN2C(=O)[C@@H](NC(=O)C2(F)CC2)C(C)(C)C)c(OCCCCN2CCC(c3cnc(N4CCN5c6cc(-c7ccccc7O)nnc6NC[C@H]5C4)nc3)CC2)c1 (single isomer, unassigned) [I-49]
